Like-named read-outs stand apart in the source and are kept apart here.
Biological target: Ashbya gossypii ICL (isocitrate lyase) (Eremothecium gossypii, UniProt O94198)
Test: Colorimetric test of purified isocitrate lyase (ICL) activity with inhibitors
Format: biochemical
Details: for inhibition at 1000 µM: read-out: inhibition of ICL activity
From the text: In order to identify substances exerting an inhibitory effect on ICL, the Ashbya gossypii ICL was first of all purified. The enzyme was isolated and purified after the fungal mycelium had been grown on vegetable oil. […] Approximately 78% of this activity is recovered in dissolved form in the supernatant after centrifuging at 40,000 g. Subsequent fractionation by means of ammonium sulfate precipitation results in a three-fold enrichment of the enzyme. After gel filtration through a Sephacryl S-300 column, the ICL is bound to the cation exchange material Mono S-Sepharose and eluted with NaCl. The resulting preparation is homogeneous by SDS polyacrylamide gel electrophoresis and has a specific activity of 18.4 U/mg.
The purified enzyme can be used to measure the effects of substances on its activity in a […] test (Dixon, H. and Kornberg, H. L. (1959), Biochem. J. 72, 3: Assay methods for key enzymes of the glyoxylate cycle). The effects of the tested substances on the enzyme are summarized and depicted in Table 2 and FIG. 1, respectively. Substances to be investigated included those which, as metabolites in the fungal cell, could have an inhibitory effect on the enzyme.

[1] = purified enzyme, concentration of 10 mM

Ashbya gossypii ICL (isocitrate lyase), sequence (O94198 whole entry): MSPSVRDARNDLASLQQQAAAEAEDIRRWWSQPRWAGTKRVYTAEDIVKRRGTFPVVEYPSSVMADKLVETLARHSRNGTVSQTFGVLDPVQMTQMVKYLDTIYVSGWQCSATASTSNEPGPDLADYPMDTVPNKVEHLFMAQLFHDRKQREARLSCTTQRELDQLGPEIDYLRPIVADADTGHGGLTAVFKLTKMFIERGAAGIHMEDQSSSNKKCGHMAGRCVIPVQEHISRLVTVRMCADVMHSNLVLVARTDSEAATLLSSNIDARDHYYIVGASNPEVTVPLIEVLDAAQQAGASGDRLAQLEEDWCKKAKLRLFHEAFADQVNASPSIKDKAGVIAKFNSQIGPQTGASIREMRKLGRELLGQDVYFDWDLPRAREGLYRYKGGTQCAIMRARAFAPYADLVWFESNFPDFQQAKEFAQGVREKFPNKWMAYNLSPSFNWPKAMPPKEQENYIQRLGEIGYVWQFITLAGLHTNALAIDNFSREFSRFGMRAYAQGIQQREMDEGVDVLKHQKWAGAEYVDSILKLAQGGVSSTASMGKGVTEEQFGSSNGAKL

`O=C(O)[C@H](O)[C@@H](O)[C@H](O)[C@H](O)COP(=O)(O)O` [6-P-gluconate] was tested, and the “inhibition of ICL activity” value [1] was “greater than 50%”.

In the case of `C=C(CC(=O)O)C(=O)O` [itaconate], the inhibition at 1000 µM is reported as 78%.

Work on `O=C(O)C(=O)O` [oxalate] yielded an inhibition at 1000 µM (purified enzyme, concentration of 1 mM) of 95%.

`C=C(OP(=O)(O)O)C(=O)O` [phosphoenolpyruvate] gave an inhibition at 10000 µM [1] of over 50%.
